Laboratory results reported in publication PMC9532755, “Impact of lactisole on the time-intensity profile of selected sweeteners in dependence of the binding site” (Food Chemistry: X, 2022).
Peptide text beside a SMILES is read from it.

Tests used:
[1] = tested on: perceived sweet intensity (panelists); assay: Sensory time-intensity (TI) measurement of sweetness by a trained panel; type: in vivo, human; settings: for Emax of max. intensity (sensory): scale 0-100, top < 100; for sweetener concentration up to which lactisole effectively inhibited the sweetness: time-intensity curves; for EC50: Homo sapiens, asymmetric five parameter curve fit, read-out: EC50 of max. intensity (sensory); for lingering: time point at which < 50 % of maximum sweetness was reached / onset (time of first maximum intensity): at sweet intensity saturation level: 50 mM cyclamate, 0.5 mM NHDC, 5.0 mM acesulfame K, 5.0 mM aspartame, without lactisole; for mode of inhibition by lactisole (shift of dose-response curve), sensory experiments: combination with 0.46 and 0.92 mM lactisole
Description: All panelists gave their written informed consent for participating in the panel and had to complete a sensory training. […] On a last training day, the evaluation on unstructured scales and the time-dependent evaluation on the computer were trained. All panelists reported to be in good general health condition, and not being under medication or pregnant. At least one hour before every training or tasting, panelists were instructed not to smoke and not to consume intense tasting food or beverage (e.g. coffee, chili, garlic, chewing gum) and to avoid in general strong hunger or fullness as well as strong odors or perfume on test days.
Every test solution was assessed randomly at two different test days with at least 8 panelists participating per replicate. The panelists were free to choose to participate at the different test days. A maximum of five test compounds were assessed in one session. All samples were coded with three-digit random code and presented to the panelists in randomized order. On each test day, panelists were presented five sweet solutions with 0, 25, 50, 100 and 200 g/L sucrose as a scale training for the ratings from “not at all” to “very intensive” sweetness. […] The three minutes of evaluation were chosen to capture as much of the lingering as possible without wearing out the panelists during the evaluation. A total of 350 measuring time points was recorded within the pre-set time frame, especially to see differences in the first seconds of evaluation, which are important for the onset. The panelists were asked to take the sample (20 mL) into their mouth, while starting the timer and simultaneously the evaluation of sweet intensity over the time, and to spit out the sample after ten seconds while continuing the evaluation of the sweetness intensity until the end of the three minutes.
For comparison of the time-dependent properties, the following descriptors were used: the maximum intensity at the first 30 sec of evaluation as “max. intensity”, the time-point of the first maximum intensity as “onset” in sec, […], and the area under the curve from the time-intensity plots as “AUC” as a marker for the overall intensity and duration.
All sensory experiments were conducted at the Christian Doppler Laboratory for Taste Research at the Institute for Physiological Chemistry, University of Vienna, Austria, at room temperature (21 – 23 °C). • Calcium mobilization assay
The statistical analysis and graphical representation were performed with GraphPad Prism 9.0 for sensory results and with SigmaPlot 14.0 for cell experiments. To evaluate the sensory dose–response effects of ascending sweetener concentration w/o lactisole, an asymmetrical five-parameter curve (Richard́s five-parameter dose–response curve) was fitted. The data are presented as means ± SEM from at least 16 single evaluations. Statistical significance between the different test compounds and concentration-dependent effects was assessed by two-way ANOVAs with Tukey post hoc test using Graph Pad Prism. The normal distribution of the data sets was checked by evaluation of the kurtosis (between −7 to + 7) and the skewness (between −3 to + 3). Equal variance was tested using Levenés test. In case the assumptions of a normal distribution and equal variance were not met, the non-parametric ANOVA on ranks (Kruskal-Wallis Test) with Dunn's post-hoc test without the calculation of interaction was applied. A Pearson product moment correlation was conducted to investigate relationships between sensory results and cell responses of the tested sweeteners.

sweetness = tested on: sweetness; parameters: method as in Schiffman et al., 1995; settings: compared to 5 % sucrose; ref Schiffman et al., 1995; cited from earlier work

| Structure (SMILES) | Hillslope of max. intensity dose-response (sensory) ([1]; 0 mM lactisole) | Emax of max. intensity (sensory) ([1]; 0 mM lactisole) | sweetener concentration up to which lactisole effectively inhibited the sweetness ([1]; 0.46 mM lactisole) | sweetener concentration up to which lactisole effectively inhibited the sweetness ([1]; 0.92 mM lactisole) | EC50 ([1]; 0 mM lactisole) | lingering: time point at which < 50 % of maximum sweetness was reached [1] | onset (time of first maximum intensity) [1] | mode of inhibition by lactisole (shift of dose-response curve), sensory experiments [1] | Hillslope of max. intensity dose-response (sensory) ([1]; with 0.46 mM lactisole) | Emax of max. intensity (sensory) ([1]; with 0.46 mM lactisole) | Hillslope of max. intensity dose-response (sensory) ([1]; with 0.92 mM lactisole) | Emax of max. intensity (sensory) ([1]; with 0.92 mM lactisole) | sensory sweetness factor (sweetness) |
| --- | --- | --- | --- | --- | --- | --- | --- | --- | --- | --- | --- | --- | --- |
| COc1ccc(CCC(=O)c2c(O)cc(O[C@@H]3O[C@H](CO)[C@@H](O)[C@H](O)[C@H]3O[C@@H]3O[C@@H](C)[C@H](O)[C@@H](O)[C@H]3O)cc2O)cc1O [NHDC, neohesperidin dihydrochalcone] | 0.94 | 97.73 | up to 0.2 mM | up to 0.5 mM | 56 µM | 100.7 s | 5.1 s | competitive inhibition | 0.89 | 100.00 | 0.82 | 100.00 | approximately 900 |
| CC1=CC(=O)NS(=O)(=O)O1 [acesulfame K] | 1.43 | unstable | up to 1 mM | up to 1 mM | 920 µM | 44.7 s | 4.6 s | – | 2.75 | 71.83 | 1.45 | 73.60 | – |
| COC(=O)[C@H](Cc1ccccc1)NC(=O)[C@@H](N)CC(=O)O [aspartame] (H-Asp-Phe-OMe) | 2.56 | 97.05 | ≤ 1.0 mM | up to 2.0 mM | 1090 µM | 71.4 s | 5.7 s | – | 1.28 | 99.22 | 1.32 | 100.00 | – |
| O=S(=O)(O)NC1CCCCC1 [cyclamate] | 2.60 | 96.11 | up to 5.0 mM | ≤ 10.0 mM | 8720 µM | 60.1 s | 5.1 s | competitive inhibition | 2.18 | 92.37 | 2.10 | unstable | around 30 |
